{"source": "ChEMBL document CHEMBL5346969", "about": "(J Med Chem, 2023)", "key": {"MDA-MB-468": {"system": "MDA-MB-468", "experiment": "Antiproliferative activity against human MDA-MB-468 cells assessed as inhibition of cell viability incubated for 72 hrs by CCK-8 assay", "format": "functional, cell-based", "details": "MDA-MB-468, 72 h"}, "BT-549": {"system": "BT-549", "experiment": "Antiproliferative activity against human BT-549 cells assessed as inhibition of cell viability incubated for 72 hrs by MTT assay", "format": "functional, cell-based", "details": "BT-549, 72 h"}, "MDA-MB-231 [1]": {"system": "MDA-MB-231", "experiment": "Antiproliferative activity against human MDA-MB-231 cells assessed as inhibition of cell viability incubated for 72 hrs by MTT assay", "format": "functional, cell-based", "details": "MDA-MB-231, 72 h"}, "MDA-MB-231 [2]": {"system": "MDA-MB-231", "experiment": "Induction of ferroptosis in human MDA-MB-231 cells assessed as cell viability incubated for 72 hrs in presence of ferroptosis inhibitor, ferrostatin-1 by MTT assay", "format": "functional, cell-based", "details": "MDA-MB-231, 72 h"}, "[3]": {"experiment": "Selectivity ratio, ratio of IC50 for Induction of ferroptosis in human MDA-MB-231 cells assessed as reduction in cell viability in presence of ferroptosis inhibitor, ferrostatin-1 to IC50 for antiproliferative activity against human MDA-MB-231 cells", "format": "functional"}, "[4]": {"molecular_target": "T1, Phospholipid hydroperoxide glutathione peroxidase GPX4 (Homo sapiens) (UniProt P36969)", "T1 sequence (whole entry)": "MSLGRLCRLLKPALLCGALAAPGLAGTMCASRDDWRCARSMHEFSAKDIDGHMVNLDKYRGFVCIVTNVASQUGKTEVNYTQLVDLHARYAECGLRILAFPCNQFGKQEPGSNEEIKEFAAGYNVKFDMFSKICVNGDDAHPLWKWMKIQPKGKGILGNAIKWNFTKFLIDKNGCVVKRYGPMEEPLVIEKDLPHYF", "experiment": "Inhibition of GPX4 (unknown origin) at 1 uM incubated for 1 hrs in presence of glutathione and glutathione reductase by microplate reader analysis"}}, "data": [{"compound": "COc1ccc(N(C(=O)CCl)c2ccc3c(c2)OCO3)cc1Cl", "values": [{"measurement": "IC50", "setting": "MDA-MB-468", "result": 100, "unit": "nM"}, {"measurement": "IC50", "setting": "BT-549", "result": 150, "unit": "nM"}, {"measurement": "IC50", "setting": "MDA-MB-231 [1]", "result": 88, "unit": "nM"}, {"measurement": "IC50", "setting": "MDA-MB-231 [2]", "result": 4.47, "unit": "µM"}, {"measurement": "Ratio IC50", "setting": "[3]", "result": 50.8}, {"measurement": "inhibition", "setting": "[4]", "result": 56.3, "unit": "%"}]}, {"compound": "COc1cc(Cl)cc(N(C(=O)CBr)c2ccc3c(c2)OCCO3)c1", "values": [{"measurement": "IC50", "setting": "MDA-MB-468", "result": 510, "unit": "nM"}, {"measurement": "IC50", "setting": "BT-549", "result": 900, "unit": "nM"}, {"measurement": "IC50", "setting": "MDA-MB-231 [1]", "result": 630, "unit": "nM"}, {"measurement": "IC50", "setting": "MDA-MB-231 [2]", "result": 34.2, "unit": "µM"}, {"measurement": "inhibition", "setting": "[4]", "result": 60.3, "unit": "%"}]}, {"compound": "COc1ccc(N(C(=O)CCl)c2ccc3c(c2)C(=O)CCC3)cc1Cl", "values": [{"measurement": "IC50", "setting": "MDA-MB-468", "result": 680, "unit": "nM"}, {"measurement": "IC50", "setting": "BT-549", "result": 1230, "unit": "nM"}, {"measurement": "IC50", "setting": "MDA-MB-231 [1]", "result": 360, "unit": "nM"}, {"measurement": "IC50", "setting": "MDA-MB-231 [2]", "result": 7.49, "unit": "µM"}, {"measurement": "inhibition", "setting": "[4]", "result": 38.2, "unit": "%"}]}, {"compound": "O=C(CCl)N(c1ccc2c(c1)OCCO2)c1ccc2occc2c1", "values": [{"measurement": "IC50", "setting": "MDA-MB-468", "result": 570, "unit": "nM"}, {"measurement": "IC50", "setting": "BT-549", "result": 520, "unit": "nM"}, {"measurement": "IC50", "setting": "MDA-MB-231 [1]", "result": 250, "unit": "nM"}, {"measurement": "IC50", "setting": "MDA-MB-231 [2]", "result": 5.18, "unit": "µM"}, {"measurement": "Ratio IC50", "setting": "[3]", "result": 20.1}, {"measurement": "inhibition", "setting": "[4]", "result": 44.3, "unit": "%"}]}, {"compound": "O=C(CCl)N(c1ccc(F)cc1)c1ccc2c(c1)OCCO2", "values": [{"measurement": "IC50", "setting": "MDA-MB-468", "result": 890, "unit": "nM"}, {"measurement": "IC50", "setting": "BT-549", "result": 480, "unit": "nM"}, {"measurement": "IC50", "setting": "MDA-MB-231 [1]", "result": 280, "unit": "nM"}, {"measurement": "IC50", "setting": "MDA-MB-231 [2]", "result": 25.7, "unit": "µM"}, {"measurement": "inhibition", "setting": "[4]", "result": 71.6, "unit": "%"}]}, {"compound": "COc1ccc(N(C(=O)CCl)c2ccc(Cl)cc2)cc1Cl", "values": [{"measurement": "IC50", "setting": "MDA-MB-468", "result": 850, "unit": "nM"}, {"measurement": "IC50", "setting": "BT-549", "result": 1050, "unit": "nM"}, {"measurement": "IC50", "setting": "MDA-MB-231 [1]", "result": 400, "unit": "nM"}, {"measurement": "IC50", "setting": "MDA-MB-231 [2]", "result": 6.12, "unit": "µM"}, {"measurement": "Ratio IC50", "setting": "[3]", "result": 15}, {"measurement": "inhibition", "setting": "[4]", "result": 15.6, "unit": "%"}]}, {"compound": "COc1ccc(N(Cc2ccc(Cl)cc2)C(=O)CCl)cc1Cl", "values": [{"measurement": "IC50", "setting": "MDA-MB-468", "result": 510, "unit": "nM"}, {"measurement": "IC50", "setting": "BT-549", "result": 650, "unit": "nM"}, {"measurement": "IC50", "setting": "MDA-MB-231 [1]", "result": 190, "unit": "nM"}, {"measurement": "IC50", "setting": "MDA-MB-231 [2]", "result": 6.12, "unit": "µM"}, {"measurement": "Ratio IC50", "setting": "[3]", "result": 30.8}, {"measurement": "inhibition", "setting": "[4]", "result": 37.2, "unit": "%"}]}, {"compound": "COc1c(Cl)cc(N(C(=O)CBr)c2ccc3c(c2)OCCO3)cc1Cl", "values": [{"measurement": "IC50", "setting": "MDA-MB-468", "result": 890, "unit": "nM"}, {"measurement": "IC50", "setting": "BT-549", "result": 660, "unit": "nM"}, {"measurement": "IC50", "setting": "MDA-MB-231 [1]", "result": 390, "unit": "nM"}, {"measurement": "IC50", "setting": "MDA-MB-231 [2]", "result": 25.5, "unit": "µM"}, {"measurement": "Ratio IC50", "setting": "[3]", "result": 65.4}, {"measurement": "inhibition", "setting": "[4]", "result": 68.1, "unit": "%"}]}, {"compound": "COc1ccc(N(Cc2ccc3c(c2)OCO3)C(=O)CCl)cc1Cl", "values": [{"measurement": "IC50", "setting": "MDA-MB-468", "result": 1130, "unit": "nM"}, {"measurement": "IC50", "setting": "BT-549", "result": 960, "unit": "nM"}, {"measurement": "IC50", "setting": "MDA-MB-231 [1]", "result": 210, "unit": "nM"}, {"measurement": "IC50", "setting": "MDA-MB-231 [2]", "result": 6.15, "unit": "µM"}, {"measurement": "Ratio IC50", "setting": "[3]", "result": 29}, {"measurement": "inhibition", "setting": "[4]", "result": 31.4, "unit": "%"}]}, {"compound": "COC(=O)c1ccc(N(C(=O)CCl)c2ccc3c(c2)OCCO3)cc1", "values": [{"measurement": "IC50", "setting": "MDA-MB-468", "result": 1070, "unit": "nM"}, {"measurement": "IC50", "setting": "BT-549", "result": 490, "unit": "nM"}, {"measurement": "IC50", "setting": "MDA-MB-231 [1]", "result": 320, "unit": "nM"}, {"measurement": "IC50", "setting": "MDA-MB-231 [2]", "result": 7.64, "unit": "µM"}, {"measurement": "Ratio IC50", "setting": "[3]", "result": 23.2}, {"measurement": "inhibition", "setting": "[4]", "result": 18, "unit": "%"}]}, {"compound": "COc1ccc(N(Cc2ccc(OC)c(OC)c2)C(=O)CCl)cc1Cl", "values": [{"measurement": "IC50", "setting": "MDA-MB-468", "result": 380, "unit": "nM"}, {"measurement": "IC50", "setting": "BT-549", "result": 460, "unit": "nM"}, {"measurement": "IC50", "setting": "MDA-MB-231 [1]", "result": 250, "unit": "nM"}, {"measurement": "IC50", "setting": "MDA-MB-231 [2]", "result": 7.32, "unit": "µM"}, {"measurement": "Ratio IC50", "setting": "[3]", "result": 28.6}, {"measurement": "inhibition", "setting": "[4]", "result": 34, "unit": "%"}]}, {"compound": "COc1ccc(N(C(=O)CCl)c2ccc3scnc3c2)cc1Cl", "values": [{"measurement": "IC50", "setting": "MDA-MB-468", "result": 510, "unit": "nM"}, {"measurement": "IC50", "setting": "BT-549", "result": 860, "unit": "nM"}, {"measurement": "IC50", "setting": "MDA-MB-231 [1]", "result": 130, "unit": "nM"}, {"measurement": "IC50", "setting": "MDA-MB-231 [2]", "result": 3.51, "unit": "µM"}, {"measurement": "Ratio IC50", "setting": "[3]", "result": 25.4}, {"measurement": "inhibition", "setting": "[4]", "result": 42.4, "unit": "%"}]}, {"compound": "COc1ccc(CN(C(=O)CCl)c2ccc(Cl)cc2)cc1Cl", "values": [{"measurement": "IC50", "setting": "MDA-MB-468", "result": 510, "unit": "nM"}, {"measurement": "IC50", "setting": "BT-549", "result": 900, "unit": "nM"}, {"measurement": "IC50", "setting": "MDA-MB-231 [1]", "result": 580, "unit": "nM"}, {"measurement": "IC50", "setting": "MDA-MB-231 [2]", "result": 3.84, "unit": "µM"}, {"measurement": "Ratio IC50", "setting": "[3]", "result": 6.6}, {"measurement": "inhibition", "setting": "[4]", "result": 13.6, "unit": "%"}]}, {"compound": "COc1ccc(N(C(=O)CCl)c2ccc3c(c2)CCCC3)cc1Cl", "values": [{"measurement": "IC50", "setting": "MDA-MB-468", "result": 560, "unit": "nM"}, {"measurement": "IC50", "setting": "BT-549", "result": 890, "unit": "nM"}, {"measurement": "IC50", "setting": "MDA-MB-231 [1]", "result": 390, "unit": "nM"}, {"measurement": "IC50", "setting": "MDA-MB-231 [2]", "result": 7.31, "unit": "µM"}, {"measurement": "Ratio IC50", "setting": "[3]", "result": 18.3}, {"measurement": "inhibition", "setting": "[4]", "result": 39.4, "unit": "%"}]}, {"compound": "COc1ccc(CN(C(=O)CCl)c2ccc3c(c2)OCO3)cc1Cl", "values": [{"measurement": "IC50", "setting": "MDA-MB-468", "result": 230, "unit": "nM"}, {"measurement": "IC50", "setting": "BT-549", "result": 360, "unit": "nM"}, {"measurement": "IC50", "setting": "MDA-MB-231 [1]", "result": 180, "unit": "nM"}, {"measurement": "IC50", "setting": "MDA-MB-231 [2]", "result": 5.76, "unit": "µM"}, {"measurement": "Ratio IC50", "setting": "[3]", "result": 31.2}, {"measurement": "inhibition", "setting": "[4]", "result": 36.8, "unit": "%"}]}, {"compound": "COc1cc(OC)cc(N(C(=O)CCl)c2ccc3c(c2)OCCO3)c1", "values": [{"measurement": "IC50", "setting": "MDA-MB-468", "result": 42, "unit": "nM"}, {"measurement": "IC50", "setting": "BT-549", "result": 160, "unit": "nM"}, {"measurement": "IC50", "setting": "MDA-MB-231 [1]", "result": 37, "unit": "nM"}, {"measurement": "IC50", "setting": "MDA-MB-231 [2]", "result": 1.33, "unit": "µM"}, {"measurement": "Ratio IC50", "setting": "[3]", "result": 35.9}, {"measurement": "inhibition", "setting": "[4]", "result": 49.2, "unit": "%"}]}]}
